Laboratory results reported in patent US7666901B2, “Analogs of 17-hydroxywortmannin as PI3K inhibitors” (Wyeth, priority 2004, dated 2010).
Values after ≈ are worked out from the molar mass of the structure shown.

Key:
[1] = test system: DU145 (human prostate carcinoma/lymphocytic leukemia); assay: Cell proliferation (MTS) assay, DU145; assay type: cell-based; details: Homo sapiens, DU-145, 72 h, three days treatment
Method in brief: (§1)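 Cells plated at about 3000 per well in RPMI-1640/10% FBS were dosed with compound one day later. Viability was read by MTS conversion (absorbance 490 nm, 1–2 h) three days after treatment began. Effect is expressed as percent of vehicle-treated growth on the same plate.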

[2] = test system: MDA468 (human breast cancer cell); assay: Cell proliferation (MTS) assay, MDA468; assay type: cell-based; details: Homo sapiens, 72 h, three days treatment
Method in brief: as §1

[3] = test system: MDA435 (human breast adenocarcinoma); assay: Cell proliferation (MTS) assay, MDA435; assay type: cell-based; details: Homo sapiens, MDA435, 72 h, three days treatment
Method in brief: as §1

PI3K = test system: T1, PI3K; assay: Fluorescence polarization assay for PI3K; assay type: biochemical; details: for IC50: Table 2
T1 construct: PI3K FP IC50
Method in brief: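 PI3K was preincubated with compound at 1% DMSO final, then reacted with PIP2/ATP substrate for 30-60 min. The reaction was stopped with a detector mix giving 10 nM red probe and 70 nM GST-GRP. Fluorescence polarization (mP, Tamra filters) was read 30-90 min later and IC50 determined.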

[4] = test system: phosphor-AKT (S473) in Rat1 cells; assay: Rat1-IGF1 assay (IGF-1 induced phospho-AKT immunoblot); assay type: cell-based, rat; details: Rattus norvegicus
Procedure: Rat1 cells are plated in 6-well culture plates and serum-starved for 24 hours. Serum-starved cells are treated either with control vehicle or with various concentrations of 17-HWT for 2 hours, stimulated by IGF-1 (100 ng/mL) for 30 minutes. Total cellular lysates are prepared using NuPAGE-LDS sample buffer (Invitrogen), sonicated and then clarified by centrifugation. Equal amounts of proteins are subject to immunoblotting analysis using NuPAGE electrophoresis system and probed with phosphor-AKT (S473), total AKT antibodies (Signaling Technology).

Human TOR = biological target: T2, Human TOR (Homo sapiens, UniProt P42345); assay: Human TOR (mTOR) kinase assay, DELFIA format; assay type: biochemical
T2 construct: FLAG
Method in brief: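 Purified FLAG-TOR (800 ng/mL) phosphorylates His6-S6K ([…]) with […] ATP in Hepes pH 7.4 buffer containing MnCl2, 2 h at room temperature. Phospho-Thr389 S6K detected by DELFIA using Europium-labelled anti-P(T389)-p70S6K antibody; enzyme inhibition calculated from signal.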

[5] = test system: LNCaP (human prostate carcinoma); assay: Cell proliferation (MTS) assay, LNCaP; assay type: cell-based; details: Homo sapiens, LNCaP, 72 h, three days treatment
Method in brief: as §1

Row | Compound | IC50 ([1]; Table 1) | IC50 ([2]; Table 1) | IC50 ([3]; Table 1) | PI3K FP IC50 (PI3K; Table 1) | IC50 ([4]; Table 1) | IC50 (Human TOR; Table 1) | IC50 ([5]; Table 1) | IC50 ([1]; Table 2) | IC50 ([2]; Table 2) | IC50 ([3]; Table 2) | IC50 (PI3K) | IC50 ([4]; Table 2) | IC50 (Human TOR; Table 2) | IC50 ([5]; Table 2)
1 | COC[C@H]1OC(=O)/C(=C/Nc2ccccc2)C2=C(O)C(=O)C3=C([C@H](OC(C)=O)C[C@]4(C)[C@@H](O)CC[C@@H]34)[C@]21C [Compound 3, (1E,4S,4aR,5R,6aS,7S,9aR)-1-(anilinomethylene)-7,11-dihydroxy-4-(methoxymethyl)-4a,6a-dimethyl-2,10-dioxo-1,2,4,4a,5,6,6a,7,8,9,9a,10-dodecahydroindeno[4,5-h]isochromen-5-yl acetate] | 12 µg/mL | 5 µg/mL | 15 µg/mL | 0.228 µg/mL | > 0.1 µg/mL | 9170 nM | 3.5 µg/mL | – | – | – | – | – | – | –
2 | COCC1OC(=O)C(=CN(CCO)CCO)C2=C(O)C(=O)C3=C(C(OC(C)=O)CC4(C)C(O)CCC34)C21C (stereo not shown) [Compound 19, Acetic acid 4-{[bis-(2-hydroxy-ethyl)-amino]-methylene}-6,17-dihydroxy-1-methoxymethyl-10,13-dimethyl-3,7-dioxo-1,3,4,7,10,11,12,13,14,15,16,17-dodecahydro-2-oxa-cyclopenta[a]phenanthren-11-yl ester] | – | – | – | – | – | – | – | 1.7 µg/mL (≈ 3.17 µM) | 1.2 µg/mL (≈ 2.24 µM) | 6 µg/mL (≈ 11.2 µM) | 918 nM | > 0.1 µg/mL | > 18700 nM | 0.07 µg/mL (≈ 0.131 µM)
3 | COCC1OC(=O)C(=CN(C)C(C)(C)C)C2=C(O)C(=O)C3=C(C(OC(C)=O)CC4(C)C(O)CCC34)C21C (stereo not shown) [Compound 20, Acetic acid 4-[(tert-butyl-methyl-amino)-methylene]-6,17-dihydroxy-1-methoxymethyl-10,13-dimethyl-3,7-dioxo-1,3,4,7,10,11,12,13,14,15,16,17-dodecahydro-2-oxa-cyclopenta[a]phenanthren-11-yl ester] | – | – | – | – | – | – | – | 1.1 µg/mL (≈ 2.13 µM) | 0.62 µg/mL (≈ 1.2 µM) | 5 µg/mL (≈ 9.66 µM) | 440 nM | > 0.1 µg/mL | > 19300 nM | 0.06 µg/mL (≈ 0.116 µM)
4 | COCC1OC(=O)C(=CN(CCCN(C)C)CCCN(C)C)C2=C(O)C(=O)C3=C(C(OC(C)=O)CC4(C)C(O)CCC34)C21C (stereo not shown) [Compound 21, Acetic acid 4-{[bis-(3-dimethylamino-propyl)-amino]-methylene}-6,17-dihydroxy-1-methoxymethyl-10,13-dimethyl-3,7-dioxo-1,3,4,7,10,11,12,13,14,15,16,17-dodecahydro-2-oxa-cyclopenta[a]phenanthren-11-yl ester] | – | – | – | – | – | – | – | 12 µg/mL (≈ 19.4 µM) | 3.9 µg/mL (≈ 6.31 µM) | 11 µg/mL (≈ 17.8 µM) | 22 nM | 0.1 µg/mL (≈ 0.162 µM) | 3560 nM | 0.16 µg/mL (≈ 0.259 µM)
5 | COCC1OC(=O)C(=CN2CCC(C(=O)OC)CC2)C2=C(O)C(=O)C3=C(C(OC(C)=O)CC4(C)C(O)CCC34)C21C (stereo not shown) [Compound 22, 1-(11-Acetoxy-6,17-dihydroxy-1-methoxymethyl-10,13-dimethyl-3,7-dioxo-1,7,10,11,12,13,14,15,16,17-decahydro-2-oxa-cyclopenta[a]phenanthren-4-ylidenemethyl)-piperidine-4-carboxylic acid methyl ester] | – | – | – | – | – | – | – | 17 µg/mL (≈ 29.6 µM) | 3.5 µg/mL (≈ 6.1 µM) | 18 µg/mL (≈ 31.4 µM) | 52 nM | 0.1 µg/mL (≈ 0.174 µM) | 1690 nM | 0.29 µg/mL (≈ 0.506 µM)
6 | COCC1OC(=O)C(=CN2CCC(C(=O)O)CC2)C2=C(O)C(=O)C3=C(C(OC(C)=O)CC4(C)C(O)CCC34)C21C (stereo not shown) [Compound 23, 1-(11-Acetoxy-6,17-dihydroxy-1-methoxymethyl-10,13-dimethyl-3,7-dioxo-1,7,10,11,12,13,14,15,16,17-decahydro-2-oxa-cyclopenta[a]phenanthren-4-ylidenemethyl)-piperidine-4-carboxylic acid] | – | – | – | – | – | – | – | 17 µg/mL (≈ 30.4 µM) | 4 µg/mL (≈ 7.15 µM) | 17 µg/mL (≈ 30.4 µM) | 33 nM | 0.1 µg/mL (≈ 0.179 µM) | 822 nM | 0.28 µg/mL (≈ 0.5 µM)
7 | COCC1OC(=O)C(=CN(C)C(C=C(C)C(=O)OC)C(C)C)C2=C(O)C(=O)C3=C(C(OC(C)=O)CC4(C)C(O)CCC34)C21C (stereo not shown) [Compound 24, 4-[(11-Acetoxy-6,17-dihydroxy-1-methoxymethyl-10,13-dimethyl-3,7-dioxo-1,7,10,11,12,13,14,15,16,17-decahydro-2-oxa-cyclopenta[a]phenanthren-4-ylidenemethyl)-methyl-amino]-2,5-dimethyl-hex-2-enoic acid methyl ester] | – | – | – | – | – | – | – | 4 µg/mL (≈ 6.5 µM) | 1.05 µg/mL (≈ 1.71 µM) | 10.1 µg/mL (≈ 16.3 µM) | 5400 nM | > 0.1 µg/mL | > 16200 nM | 0.13 µg/mL (≈ 0.211 µM)
8 | COCC1OC(=O)C(=CN(C)CCCN2CCN(c3ccc(OC)cc3)CC2)C2=C(O)C(=O)C3=C(C(OC(C)=O)CC4(C)C(O)CCC34)C21C (stereo not shown) [Compound 25, Acetic acid 6,17-dihydroxy-1-methoxymethyl-4-[({3-[4-(4-methoxy-phenyl)-piperazin-1-yl]-propyl}-methyl-amino)-methylene]-10,13-dimethyl-3,7-dioxo-1,3,4,7,10,11,12,13,14,15,16,17-dodecahydro-2-oxa-cyclopenta[a]phenanthren-11-yl ester] | – | – | – | – | – | – | – | 20.5 µg/mL (≈ 29.5 µM) | 4.3 µg/mL (≈ 6.2 µM) | 16 µg/mL (≈ 23.1 µM) | 15 nM | 0.02 µg/mL (≈ 0.0288 µM) | 1350 nM | 0.43 µg/mL (≈ 0.62 µM)
9 | COCC1OC(=O)C(=CN(C)CCCN2CCN(C)CC2)C2=C(O)C(=O)C3=C(C(OC(C)=O)CC4(C)C(O)CCC34)C21C (stereo not shown) [Compound 26, Acetic acid 6,17-dihydroxy-1-methoxymethyl-10,13-dimethyl-4-({methyl-[3-(4-methyl-piperazin-1-yl)-propyl]-amino}-methylene)-3,7-dioxo-1,3,4,7,10,11,12,13,14,15,16,17-dodecahydro-2-oxa-cyclopenta[a]phenanthren-11-yl ester] | – | – | – | – | – | – | – | 17 µg/mL (≈ 28.3 µM) | 3.9 µg/mL (≈ 6.48 µM) | 21 µg/mL (≈ 34.9 µM) | 19 nM | 0.02 µg/mL (≈ 0.0332 µM) | 2330 nM | 0.28 µg/mL (≈ 0.465 µM)
10 | COCC1OC(=O)C(=CN2CCC(=O)CC2)C2=C(O)C(=O)C3=C(C(OC(C)=O)CC4(C)C(O)CCC34)C21C (stereo not shown) [Compound 44, Acetic acid 6,17-dihydroxy-1-methoxymethyl-10,13-dimethyl-3,7-dioxo-4-(4-oxo-piperidin-1-ylmethylene)-1,3,4,7,10,11,12,13,14,15,16,17-dodecahydro-2-oxa-cyclopenta[a]phenanthren-11-yl ester] | – | – | – | – | – | – | – | – | 3 µg/mL (≈ 5.66 µM) | – | 60.2 nM | 0.02 µg/mL (≈ 0.0378 µM) | 1110 nM | 0.37 µg/mL (≈ 0.699 µM)
11 | CCN(C=C1C(=O)OC(COC)C2(C)C3=C(C(=O)C(O)=C12)C1CCC(O)C1(C)CC3)CCN(C)C (stereo not shown) [Compound 45, 4-{[(2-Dimethylamino-ethyl)-ethyl-amino]-methylene}-6,17-dihydroxy-1-methoxymethyl-10,13-dimethyl-10,11,12,13,14,15,16,17-octahydro-1H,4H-2-oxa-cyclopenta[a]phenanthrene-3,7-dione] | – | – | – | – | – | – | – | – | 5 µg/mL (≈ 10.2 µM) | – | 369 nM | 0.1 µg/mL (≈ 0.205 µM) | > 20500 nM | 0.65 µg/mL (≈ 1.33 µM)
12 | CCN(C=C1C(=O)OC(COC)C2(C)C1=C(O)C(=O)C1=C2C(OC(C)=O)CC2(C)C(O)CCC12)CCN(C)C (stereo not shown) [Compound 46, Acetic acid 4-{[(2-dimethylamino-ethyl)-ethyl-amino]-methylene}-6,17-dihydroxy-1-methoxymethyl-10,13-dimethyl-3,7-dioxo-1,3,4,7,10,11,12,13,14,15,16,17-dodecahydro-2-oxa-cyclopenta[a]phenanthren-11-yl ester] | – | – | – | – | – | – | – | – | 3.3 µg/mL (≈ 6.04 µM) | – | 5.1 nM | 0.02 µg/mL (≈ 0.0366 µM) | 878 nM | 0.65 µg/mL (≈ 1.19 µM)
13 | COCC1OC(=O)C(=CN2CCC(N3CCCCC3)CC2)C2=C(O)C(=O)C3=C(C(OC(C)=O)CC4(C)C(O)CCC34)C21C (stereo not shown) [Compound 47, Acetic acid 4-[1,4′]bipiperidinyl-1′-ylmethylene-6,17-dihydroxy-1-methoxymethyl-10,13-dimethyl-3,7-dioxo-1,3,4,7,10,11,12,13,14,15,16,17-dodecahydro-2-oxa-cyclopenta[a]phenanthren-11-yl ester] | – | – | – | – | – | – | – | – | 5.8 µg/mL (≈ 9.69 µM) | – | 63.3 nM | 0.05 µg/mL (≈ 0.0835 µM) | 568 nM | 0.9 µg/mL (≈ 1.5 µM)
14 | COCC1OC(=O)C(=CN2CCOCC2)C2=C(O)C(=O)C3=C(C(OC(C)=O)CC4(C)C(O)CCC34)C21C (stereo not shown) [Compound 48, Acetic acid 6,17-dihydroxy-1-methoxymethyl-10,13-dimethyl-4-morpholin-4-ylmethylene-3,7-dioxo-1,3,4,7,10,11,12,13,14,15,16,17-dodecahydro-2-oxa-cyclopenta[a]phenanthren-11-yl ester] | – | – | – | – | – | – | – | – | 3 µg/mL (≈ 5.8 µM) | – | 36.1 nM | 0.02 µg/mL (≈ 0.0386 µM) | 831 nM | 0.5 µg/mL (≈ 0.966 µM)
